# According to patent US20220396567A1, “SUBSTITUTED PYRIMIDINE FOR THE TREATMENT AND PROPHYLAXIS OF HEPATITIS B VIRUS INFECTION” (Hoffmann-La Roche Inc., priority 2019, published 2022):
# pIC50: −log10 of the molar value.
# System: HBV
# Assay: Cryopreserved primary human hepatocytes (PHH) HBV infection assay, extracellular HBsAg by CLIA
# Format: cell-based
# Details: Hepatitis B virus, Hepatocyte, 216 h; HBV-infected cryopreserved PHH; extracellular HBsAg at 9 days post-compound treatment; 4 parameter logistic curve fit
# Method: This assay is used to confirm the anti-HBV effect of the compounds in HBV PHH infection assay. Cryopreserved PHH (BioreclamationIVT, Lot YJM) was thawed at 37° C. and gently transferred into pre-warmed InVitroGRO HT medium (BioreclamationIVT, Cat. S03317). The mixture was centrifuged at 70 relative centrifugal force (RCF) for 3 min at RT, and the supernatant was discarded. Pre-warmed InVitroGRO CP medium (BioreclamationIVT, Cat #S03316) was added to the cell pellet to gently re-suspend cells. The cells were seeded at the density of 5.8×10^4 cells per well to collagen I coated 96-well plate (Gibco, Cat. A1142803) with the InVitroGRO CP medium. All plates were incubated at 37° C. with 5% CO2 and 85% humidity.
# At 20 hrs after plating, the medium was changed to PHH culture medium (Dulbecco's Modified Eagle Medium (DMEM)/F12 (1:1) (Gibco, Cat. 11320-033), 10% fetal bovine serum (Gibco Cat. 10099141), 100 U/mL penicillin, 100 μg/mL streptomycin (Gibco, Cat. 151401-122), […] (Invitrogen Cat. PHG0311L), 20 ng/mL dexamethasone (Sigma, Cat. D4902) and 250 ng/mL human recombinant insulin (Gibco, Cat. 12585-014)). And the cells were incubated at 37° C. with 5% CO2 and 85% humidity for 4 hrs. The medium was then changed to pre-warmed PHH culture medium containing 4% polyethylene glycol (PEG) MW8000 (Sigma, Cat. P1458-50 ML) and 1% DMSO (Sigma, Cat. D2650). 5.8×10^6 genomic equivalents of HBV were added into the medium.
# At 24 hrs post-infection, the cells were gently washed with PBS and refreshed with PHH culture medium supplemented with 1% DMSO, and 0.25 mg/mL Matrix gel (Corning, Cat. 356237) at 200 μL per well. All plates were immediately placed in at 37° C. CO2 incubator.
# 24 hrs later, serial dilutions of compounds made with DMSO were further diluted with the same culture medium (PHH culture medium supplemented with 1% DMSO and 0.25 mg/mL Matrix gel as described above) before they were added to the cells to reach desired final compound concentrations and 1% DMSO concentration. The medium containing the compounds were refreshed every three days.
# At 9 days post-compound treatment, extracellular HBsAg level were measured with Chemiluminescence Immuno Assay (CLIA) kit (Autobio, HBsAg Quantitative CLIA).
# HBsAg IC50 was derived from the dose-response curve using 4 parameter logistic curve fit method. The compounds of formula (I) have HBsAg IC50<20 μM, particularly <1 μM.
row,SMILES,pIC50
1,"CC(Nc1nc(N)nc(-c2ccco2)c1C#N)c1ccccc1 (centres unmarked) [Example 1, 2-amino-4-(2-furyl)-6-(1-phenylethylamino)pyrimidine-5-carbonitrile]",5.23
2,"CC(C)Oc1ccc(CNc2nc(N)nc(-c3ccco3)c2C#N)cc1Br [Example 2, 2-amino-4-[(3-bromo-4-isopropoxy-phenyl)methylamino]-6-(2-furyl)pyrimidine-5-carbonitrile]",5.48
3,"CC1(C)CC(CNc2nc(N)nc(-c3ccco3)c2C#N)CC(C)(C)O1 [Example 3, 2-amino-4-(2-furyl)-6-[(2,2,6,6-tetramethyltetrahydropyran-4-yl)methylamino]pyrimidine-5-carbonitrile]",5.78
4,"N#Cc1c(NCC(F)Cc2ccccc2Cl)nc(N)nc1-c1ccco1 (centres unmarked) [Example 4, 2-amino-4-[[3-(2-chlorophenyl)-2-fluoro-propyl]amino]-6-(2-furyl)pyrimidine-5-carbonitrile]",4.94
5,"CC(Nc1nc(N)nc(-c2ccco2)c1C#N)c1cccc(C(F)(F)F)c1 (centres unmarked) [Example 5, 2-amino-4-(2-furyl)-6-[1-[3-(trifluoromethyl)phenyl]ethylamino]pyrimidine-5-carbonitrile]",6.33
6,COc1cccc(CN(C)c2nc(N)nc(-c3ccco3)c2C#N)c1 [Example 6],5.00
7,"CS(=O)(=O)c1ccccc1C1(Nc2nc(N)nc(-c3ccco3)c2C#N)CC1 [Example 7, 2-amino-4-(2-furyl)-6-[[1-(2-methylsulfonylphenyl)cyclopropyl]amino]pyrimidine-5-carbonitrile]",5.75
8,"N#Cc1c(NCC2CCC(F)(F)C2)nc(N)nc1-c1ccco1 (centres unmarked) [Example 8, 2-amino-4-[(3,3-difluorocyclopentyl)methylamino]-6-(2-furyl)pyrimidine-5-carbonitrile]",4.99
9,"N#Cc1c(NC2CCCC2)nc(N)nc1-c1ccco1 [Example 9, 2-amino-4-(cyclopentylamino)-6-(2-furyl)pyrimidine-5-carbonitrile]",5.06
10,"N#Cc1c(NCC2CCCCC2)nc(N)nc1-c1ccco1 [Example 10, 2-amino-4-(cyclohexylmethylamino)-6-(2-furyl)pyrimidine-5-carbonitrile]",5.44
11,"CSc1nc(NCc2cccc(C(F)(F)F)c2)c(C#N)c(-c2ccco2)n1 [Example 11, 4-(2-furyl)-2-methylsulfanyl-6-[[3-(trifluoromethyl)phenyl]methylamino]pyrimidine-5-carbonitrile]",5.63
12,"COCCNc1nc(NCc2cccc(C(F)(F)F)c2)c(C#N)c(-c2ccco2)n1 [Example 12, 4-(2-furyl)-2-(2-methoxyethylamino)-6-[[3-(trifluoromethyl)phenyl]methylamino]pyrimidine-5-carbonitrile]",5.41
13,"N#Cc1c(NCc2cccc(C(F)(F)F)c2)nc(NCC(F)(F)F)nc1-c1ccco1 [Example 13, 4-(2-furyl)-2-(2,2,2-trifluoroethylamino)-6-[[3-(trifluoromethyl)phenyl]methylamino]pyrimidine-5-carbonitrile]",5.41
14,"CCNc1nc(NCc2cccc(C(F)(F)F)c2)c(C#N)c(-c2ccco2)n1 [Example 14, 2-(ethylamino)-4-(2-furyl)-6-[[3-(trifluoromethyl)phenyl]methylamino]pyrimidine-5-carbonitrile]",5.56
15,"CCCNc1nc(NCc2cccc(C(F)(F)F)c2)c(C#N)c(-c2ccco2)n1 [Example 15, 4-(2-furyl)-2-(propylamino)-6-[[3-(trifluoromethyl)phenyl]methylamino]pyrimidine-5-carbonitrile]",5.52
16,"CN(C)c1nc(NCc2cccc(C(F)(F)F)c2)c(C#N)c(-c2ccco2)n1 [Example 16, 2-(dimethylamino)-4-(2-furyl)-6-[[3-(trifluoromethyl)phenyl]methylamino]pyrimidine-5-carbonitrile]",5.17

row,SMILES,pIC50
1,"COc1nc(NCc2cccc(C(F)(F)F)c2)c(C#N)c(-c2ccco2)n1 [Example 17, 4-(2-furyl)-2-methoxy-6-[[3-(trifluoromethyl)phenyl]methylamino]pyrimidine-5-carbonitrile]",5.47
2,"CCOc1nc(NCc2cccc(C(F)(F)F)c2)c(C#N)c(-c2ccco2)n1 [Example 18, 2-ethoxy-4-(2-furyl)-6-[[3-(trifluoromethyl)phenyl]methylamino]pyrimidine-5-carbonitrile]",5.22
3,"CCCCOc1nc(NCc2cccc(C(F)(F)F)c2)c(C#N)c(-c2ccco2)n1 [Example 19, 2-butoxy-4-(2-furyl)-6-[[3-(trifluoromethyl)phenyl]methylamino]pyrimidine-5-carbonitrile]",5.62
4,"COc1ccc(Br)c(CNc2nc(C)nc(-c3ccco3)c2C#N)c1OC [Example 20, 4-[(6-bromo-2,3-dimethoxy-phenyl)methylamino]-6-(2-furyl)-2-methyl-pyrimidine-5-carbonitrile]",5.58
5,"Cc1nc(NCc2ccc(OC(C)C)c(Br)c2)c(C#N)c(-c2ccco2)n1 [Example 21, 4-[(3-bromo-4-isopropoxy-phenyl)methylamino]-6-(2-furyl)-2-methyl-pyrimidine-5-carbonitrile]",5.18
6,"Cc1nc(NC2(c3ccccc3S(C)(=O)=O)CC2)c(C#N)c(-c2ccco2)n1 [Example 22, 4-(2-furyl)-2-methyl-6-[[1-(2-methylsulfonylphenyl)cyclopropyl]amino]pyrimidine-5-carbonitrile]",5.56
7,"Cc1nc(NCc2ccccc2)c(C#N)c(-c2ccco2)n1 [Example 23, 4-(benzylamino)-6-(2-furyl)-2-methyl-pyrimidine-5-carbonitrile]",5.16
8,"N#Cc1c(NCc2ccccc2Cl)ncnc1-c1ccco1 [Example 24, 4-[(2-chlorophenyl)methylamino]-6-(2-furyl)pyrimidine-5-carbonitrile]",5.51
9,"N#Cc1c(NCc2ccccc2)ncnc1-c1ccco1 [Example 25, 4-(benzylamino)-6-(2-furyl)pyrimidine-5-carbonitrile]",5.69
10,"CC(C)CNc1ncnc(-c2ccco2)c1C#N [Example 26, 4-(2-furyl)-6-(isobutylamino)pyrimidine-5-carbonitrile]",5.24
11,"N#Cc1c(NCC2CCCCC2)ncnc1-c1ccco1 [Example 27, 4-(cyclohexylmethylamino)-6-(2-furyl)pyrimidine-5-carbonitrile]",5.17
12,"N#Cc1c(NCCc2ccccc2)ncnc1-c1ccco1 [Example 28, 4-(2-furyl)-6-(2-phenylethylamino)pyrimidine-5-carbonitrile]",6.38
13,"N#Cc1c(NCC2CCCC2)ncnc1-c1ccco1 [Example 29, 4-(cyclopentylmethylamino)-6-(2-furyl)pyrimidine-5-carbonitrile]",5.58
14,"N#Cc1c(NCC2(c3ccccc3)CCCC2)ncnc1-c1ccco1 [Example 30, 4-(2-furyl)-6-[(1-phenylcyclopentyl)methylamino]pyrimidine-5-carbonitrile]",5.04
15,"N#Cc1c(NCc2ccccc2N)ncnc1-c1ccco1 [Example 31, 4-[(2-aminophenyl)methylamino]-6-(2-furyl)pyrimidine-5-carbonitrile]",6.57
16,"CC(Nc1cc(-c2ccco2)nc(N(C)C)n1)c1cccc(C(F)(F)F)c1 (centres unmarked) [Example 32, 6-(2-furyl)-N2,N2-dimethyl-N4-[1-[3-(trifluoromethyl)phenyl]ethyl]pyrimidine-2,4-diamine]",5.46
